Among the data in BindingDB's records for doi:10.1016/j.bmcl.2003.08.010 (University of Manchester, 2003) are IC50 values, retold here.

This test in a line: Inhibitory activity against Escherichia coli thymidine phosphorylase.

As usually defined, the IC50 is the concentration at which inhibition is half-maximal. `C=CCNC(=S)NC=C1C(=O)NC(=O)NC1=O` [1-Allyl-3-(2,4,6-trioxo-tetrahydro-pyrimidin-5-ylidenemethyl)-thiourea] registered an IC50 of 94.8 µM. This counts as double-digit micromolar.
